In PubChem BioAssay AID1963961 (Molecular Pharmacology Branch, DTP, NCI, 2024):

Tested on: K98450-129-R-PDC multicell spheroids, viability
Assay: Anticancer human tumor K98450-129-R-PDC patient-derived colon adenocarcinoma cell line growth inhibition [PI3K]
Details: for IC50: curve of first compound; for viability, T/C: stronger effect = lower value; active = viability on the fitted dose curve at most 10% of control; inactive = the rest
Outline: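 Stroma-containing spheroids: tumor line, pooled-donor HUVEC, hMSC. Treatments: targeted agents with PI3K inhibitors. Dosing: clinically relevant, half-log spacing, 10 microM ceiling without known Cmax. Read-out: cell viability.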

[1] = second compound 0.0316 µM, first compound 0.0316 µM
[2] = second compound 0.0316 µM, first compound 0.1 µM
[3] = second compound 0.0316 µM, first compound 0.316 µM
[4] = second compound 0.0316 µM, first compound 1 µM
[5] = second compound 0.0316 µM, first compound 3.16 µM
[6] = second compound 0.0316 µM, first compound 10 µM
[7] = second compound 0.1 µM, first compound 0.0316 µM
[8] = second compound 0.1 µM, first compound 0.1 µM
[9] = second compound 0.1 µM, first compound 0.316 µM
[10] = second compound 0.1 µM, first compound 1 µM
[11] = second compound 0.1 µM, first compound 3.16 µM
[12] = second compound 0.1 µM, first compound 10 µM
[13] = second compound 0.316 µM, first compound 0.0316 µM
[14] = second compound 0.316 µM, first compound 0.1 µM
[15] = second compound 0.316 µM, first compound 0.316 µM
[16] = second compound 0.316 µM, first compound 1 µM
[17] = second compound 0.316 µM, first compound 3.16 µM
[18] = second compound 0.316 µM, first compound 10 µM
[19] = second compound 1 µM, first compound 0.0316 µM
[20] = second compound 1 µM, first compound 0.1 µM
[21] = second compound 1 µM, first compound 0.316 µM
[22] = second compound 1 µM, first compound 1 µM
[23] = second compound 1 µM, first compound 3.16 µM
[24] = second compound 1 µM, first compound 10 µM
[25] = second compound 3.16 µM, first compound 0.0316 µM
[26] = second compound 3.16 µM, first compound 0.1 µM
[27] = second compound 3.16 µM, first compound 0.316 µM
[28] = second compound 3.16 µM, first compound 1 µM
[29] = second compound 3.16 µM, first compound 3.16 µM
[30] = second compound 3.16 µM, first compound 10 µM
[31] = second compound 10 µM, first compound 0.0316 µM
[32] = second compound 10 µM, first compound 0.1 µM
[33] = second compound 10 µM, first compound 0.316 µM
[34] = second compound 10 µM, first compound 1 µM
[35] = second compound 10 µM, first compound 3.16 µM
[36] = second compound 10 µM, first compound 10 µM
[37] = second compound 0.00316 µM, first compound 0.0316 µM
[38] = second compound 0.00316 µM, first compound 0.1 µM
[39] = second compound 0.01 µM, first compound 0.0316 µM
[40] = second compound 0.01 µM, first compound 0.1 µM
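Also: spheroids exposed to agents for seven days before read-out.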

CC1(C)CCC(CN2CCN(c3ccc(C(=O)NS(=O)(=O)c4ccc(NCC5CCOCC5)c([N+](=O)[O-])c4)c(Oc4cnc5[nH]ccc5c4)c3)CC2)=C(c2ccc(Cl)cc2)C1 + Cc1nc(NC(=O)N2CCCC2C(N)=O)sc1-c1ccnc(C(C)(C)C(F)(F)F)c1
5.78 µM: IC50 (second compound 0.316 µM)
5.16 µM: IC50 (second compound 3.16 µM)
active: viability, T/C [12] 9.67% | viability, T/C [24] 5.86% | viability, T/C [30] 5.29% | viability, T/C [36] 5.54%
5.4 µM: IC50 (second compound 1 µM)
6.03 µM: IC50 (second compound 0.0316 µM)
inactive: viability, T/C [1] 105% | viability, T/C [2] 101% | viability, T/C [3] 106% | viability, T/C [4] 100% | viability, T/C [5] 98.3% | viability, T/C [6] 12.2% | viability, T/C [7] 104% | viability, T/C [8] 96.9% | viability, T/C [9] 104% | viability, T/C [10] 95% | viability, T/C [11] 92.5% | viability, T/C [13] 99.5% | viability, T/C [14] 95.5% | viability, T/C [15] 98.6% | viability, T/C [16] 92.4% | viability, T/C [17] 93.5% | viability, T/C [18] 10.5% | viability, T/C [19] 88.4% | viability, T/C [20] 94.4% | viability, T/C [21] 94.9% | viability, T/C [22] 91% | viability, T/C [23] 88.4% | viability, T/C [25] 80.6% | viability, T/C [26] 87.4% | viability, T/C [27] 86% | viability, T/C [28] 84.3% | viability, T/C [29] 83% | viability, T/C [31] 70% | viability, T/C [32] 73.9% | viability, T/C [33] 72.9% | viability, T/C [34] 68.5% | viability, T/C [35] 77%
4.66 µM: IC50 (second compound 10 µM)
5.71 µM: IC50 (second compound 0.1 µM)

CC(C)n1nc(-c2ccc3oc(N)nc3c2)c2c(N)ncnc21 + CC(Nc1ccc2c(c1)OCCn1cc(N3C(=O)OCC3C(F)F)nc1-2)C(N)=O
inactive: viability, T/C (second compound 0.00316 µM, first compound 0.000316 µM) 106% | viability, T/C (second compound 0.00316 µM, first compound 0.001 µM) 93.9% | viability, T/C (second compound 0.00316 µM, first compound 0.00316 µM) 97.1% | viability, T/C (second compound 0.00316 µM, first compound 0.01 µM) 94.7% | viability, T/C [37] 90.3% | viability, T/C [38] 78.8% | viability, T/C (second compound 0.01 µM, first compound 0.000316 µM) 115% | viability, T/C (second compound 0.01 µM, first compound 0.001 µM) 100% | viability, T/C (second compound 0.01 µM, first compound 0.00316 µM) 103% | viability, T/C (second compound 0.01 µM, first compound 0.01 µM) 91.1% | viability, T/C [39] 96.1% | viability, T/C [40] 77.2% | viability, T/C (second compound 0.0316 µM, first compound 0.000316 µM) 99% | viability, T/C (second compound 0.0316 µM, first compound 0.001 µM) 98.9% | viability, T/C (second compound 0.0316 µM, first compound 0.00316 µM) 99.4% | viability, T/C (second compound 0.0316 µM, first compound 0.01 µM) 94.5% | viability, T/C [1] 96.5% | viability, T/C [2] 74% | viability, T/C (second compound 0.1 µM, first compound 0.000316 µM) 100% | viability, T/C (second compound 0.1 µM, first compound 0.001 µM) 102% | viability, T/C (second compound 0.1 µM, first compound 0.00316 µM) 95.4% | viability, T/C (second compound 0.1 µM, first compound 0.01 µM) 91.3% | viability, T/C [7] 93.1% | viability, T/C [8] 71.5% | viability, T/C (second compound 0.316 µM, first compound 0.000316 µM) 93.1% | viability, T/C (second compound 0.316 µM, first compound 0.001 µM) 93.2% | viability, T/C (second compound 0.316 µM, first compound 0.00316 µM) 99.7% | viability, T/C (second compound 0.316 µM, first compound 0.01 µM) 88.2% | viability, T/C [13] 79.1% | viability, T/C [14] 77.7% | viability, T/C (second compound 1 µM, first compound 0.000316 µM) 87.2% | viability, T/C (second compound 1 µM, first compound 0.001 µM) 89.7% | viability, T/C (second compound 1 µM, first compound 0.00316 µM) 81.3% | viability, T/C (second compound 1 µM, first compound 0.01 µM) 82.2% | viability, T/C [19] 80.9% | viability, T/C [20] 67.1%
> 0.1 µM: IC50 (second compound 0.00316 µM) | IC50 (second compound 0.01 µM) | IC50 (second compound 0.0316 µM) | IC50 (second compound 0.1 µM) | IC50 (second compound 0.316 µM) | IC50 (second compound 1 µM)

CC(Cn1ccc(-c2ccc(C#N)c(Cl)c2)n1)NC(=O)c1cc(C(C)O)[nH]n1 (stereo not drawn) + Cc1nc(NC(=O)N2CCCC2C(N)=O)sc1-c1ccnc(C(C)(C)C(F)(F)F)c1
inactive: viability, T/C [1] 103% | viability, T/C [2] 98.6% | viability, T/C [3] 107% | viability, T/C [4] 105% | viability, T/C [5] 99.8% | viability, T/C [6] 103% | viability, T/C [7] 108% | viability, T/C [8] 99.3% | viability, T/C [9] 104% | viability, T/C [10] 94.2% | viability, T/C [11] 99.5% | viability, T/C [12] 103% | viability, T/C [13] 104% | viability, T/C [14] 94.4% | viability, T/C [15] 99.3% | viability, T/C [16] 98.6% | viability, T/C [17] 102% | viability, T/C [18] 103% | viability, T/C [19] 86.4% | viability, T/C [20] 101% | viability, T/C [21] 98.3% | viability, T/C [22] 88.8% | viability, T/C [23] 98.2% | viability, T/C [24] 84.8% | viability, T/C [25] 85.1% | viability, T/C [26] 81.4% | viability, T/C [27] 86.8% | viability, T/C [28] 84% | viability, T/C [29] 94% | viability, T/C [30] 85.8% | viability, T/C [31] 75.6% | viability, T/C [32] 72.1% | viability, T/C [33] 80.3% | viability, T/C [34] 81.1% | viability, T/C [35] 80.8% | viability, T/C [36] 74.3%
> 10 µM: IC50 (second compound 0.0316 µM) | IC50 (second compound 0.1 µM) | IC50 (second compound 0.316 µM) | IC50 (second compound 1 µM) | IC50 (second compound 3.16 µM) | IC50 (second compound 10 µM)

C=CC(=O)N1CCN(c2nc(=O)n(-c3c(C)ccnc3C(C)C)c3nc(-c4c(O)cccc4F)c(F)cc23)C(C)C1 (stereo not drawn) + COc1c(OCCCN2CCOCC2)ccc2c3n(c(=NC(=O)c4cnc(N)nc4)nc12)CCN3
0.166 µM: IC50 (second compound 1 µM)
2.76 µM: IC50 (second compound 0.00316 µM)
5 µM: IC50 (second compound 0.01 µM)
0.554 µM: IC50 (second compound 0.316 µM)
inactive: viability, T/C [37] 98.1% | viability, T/C [38] 95.5% | viability, T/C (second compound 0.00316 µM, first compound 0.316 µM) 97.4% | viability, T/C (second compound 0.00316 µM, first compound 1 µM) 82.1% | viability, T/C (second compound 0.00316 µM, first compound 3.16 µM) 45.7% | viability, T/C (second compound 0.00316 µM, first compound 10 µM) 44.7% | viability, T/C [39] 103% | viability, T/C [40] 82.8% | viability, T/C (second compound 0.01 µM, first compound 0.316 µM) 89.3% | viability, T/C (second compound 0.01 µM, first compound 1 µM) 63% | viability, T/C (second compound 0.01 µM, first compound 3.16 µM) 57.1% | viability, T/C (second compound 0.01 µM, first compound 10 µM) 41.4% | viability, T/C [1] 116% | viability, T/C [2] 99.6% | viability, T/C [3] 73.8% | viability, T/C [4] 76.2% | viability, T/C [5] 48.6% | viability, T/C [6] 29.4% | viability, T/C [7] 71.9% | viability, T/C [8] 91.2% | viability, T/C [9] 61.1% | viability, T/C [10] 44.9% | viability, T/C [11] 41.9% | viability, T/C [12] 28.3% | viability, T/C [13] 67.7% | viability, T/C [14] 59.5% | viability, T/C [15] 66% | viability, T/C [16] 34.8% | viability, T/C [17] 19.5% | viability, T/C [18] 16.3% | viability, T/C [19] 50.8% | viability, T/C [20] 61.1% | viability, T/C [21] 42.2% | viability, T/C [22] 22.6% | viability, T/C [23] 15.1% | viability, T/C [24] 14.2%
2.95 µM: IC50 (second compound 0.0316 µM)
0.692 µM: IC50 (second compound 0.1 µM)
